Broadly, the AUC is concentration integrated over time. Broadly, the Cmax is the highest concentration seen after dosing. In general, Tmax refers to the time from dosing to the highest level.

This is an account of results in patent publication US20100272811A1 (priority 2008, published 2010).

Like-named read-outs stand apart in the source and are kept apart here.

The conditions of series [1]: background statement; cited from earlier work.
A short description of series [2]: Pharmacokinetic profile of trospium powder formulations administered to rats via insufflation. The format is in vivo, Sprague-Dawley rats. The following applies: rat, intratracheal insufflation, approx. 200 μg trospium, plasma, mean ± standard error. The method, then: Male Sprague-Dawley rats (weight 400±50 grams) were administered various powder formulations of trospium by insufflation. The rats were divided into four groups of four rats as follows: • Group A—Insufflated intratracheally with Leucine/Trospium/DPPC containing approximately 200 μg Trospium • Group B—Insufflated intratracheally with Leucine/Trospium/NaSaccharin containing approximately 200 μg Trospium • Group C—Insufflated intratracheally with Leucine/Citrate/NaSaccharin/Trospium containing approximately 200 μg Trospium • Group D—Insufflated intratracheally with Leucine/Trospium containing approximately 200 μg Trospium The formulations tested are described in Table 2.
Rats were anesthetized using inhaled Isofluorane. Drug powder was then intratracheally insufflated into each rat. All animals were allowed food and water ad libitum between blood collection time points. Blood samples were collected by a lateral tail vein after anesthesia. A syringe without an anticoagulant was used for blood collection and the whole blood was transferred to tubes containing K2 EDTA (MIRCOTAINER®; MFG# BD365974). The blood samples were processed (the tubes are inverted 15-20 times and centrifuged for 2 minutes at >14,000 g's to separate plasma). The plasma samples prepared in this manner were transferred to labeled plain tubes (MICROTAINER®; MFG# BD5962) and stored frozen at <−70° C. 250 ul of whole blood was obtained for each time point. Sample collection times were pre-insufflation, 2.5, 5.0, 7.5, 10, 15, 30, 60 and 120 minutes after insufflation.
Plasma samples were analyzed for trospium using an Ionspray LC/MS/MS (Liquid Chromatography coupled with Mass Spectrometery). Briefly, 100 ul of standard (trospium standard solutions in rat plasma), control or test samples were added to the wells of a 96-well plate. The trospium standard solutions were prepared by adding 100 ul of 1 ug/ml trospium chloride (in methanol) with rat plasma to yield a nominal concentration of 4000 pg/ml. Standard solutions in rat plasma were prepared as follows:
Controls were prepared by adding 1 ug/ml trospium chloride in methanol to rat plasma to yield concentrations of 2500 pg/ml, 800 pg/ml and 200 pg/ml of internal standard solution (2.5 ng/ml clidinium bromide in water) were added to all wells except those containing blank plasma samples. 20 ul of 50 mM ammonium acetate (pH 9.0) solution and 350 ul acetonitrile were added to all wells and the plate was shaken on an orbital shaker for 1-2 minutes. The plate was centrifuged at 2000×g for 5-7 minutes. The supernatant was removed added onto an Agilent 96-well plate and concentrated to dryness using a Speed Vacuum. The dry sample were then reconstituted with 100 ul of 50:50 methanol:water and analyzed by LC/MS/MS.
Quantitation was performed using a weighted (1/×) linear regression analysis generated from standard samples.

As for `O=C(O[C@H]1C[C@H]2CC[C@@H](C1)[N+]21CCCC1)C(O)(c1ccccc1)c1ccccc1` [Trospium chloride, endo-3-[(hydroxydiphenyl-acetyl)oxy]spiro[8-azoniabicyclo[3.2.1]octane-8,-1′-pyrrolidinium]chloride, reference compound], in series [1], the aqueous solubility result is “relatively high”. In addition, the area under the curve (AUC) in series [2] (male, Sprague-Dawley, inhaled or intranasal, 200 ug, read-out: AUC (converted)) is 24.9 ng·h/mL. Moreover, the Cmax in series [2] (male, Sprague-Dawley, inhaled or intranasal, 200 ug, read-out: Cmax) amounted to 71.2 ± 6.26 ng/mL. Besides, in series [2] (male, Sprague-Dawley, inhaled or intranasal, 200 ug, read-out: Tmax (converted)), the Tmax is 6.31 min.
On to `O=C(OC1C[C@H]2CC[C@@H](C1)[N+]21CCCC1)C(O)(c1ccccc1)c1ccccc1.O=C1NS(=O)(=O)c2ccccc21` (stereo partly drawn) [Trospium saccharin complex], for which the solubility entry (30% ethanol with inline heating at 55° C.) is recorded as “greater than 4 mg/ml”. The soluble in water result (water at room temperature) is “less than 0.4 mg/ml”. In series [2], the AUC was 18.37 ± 1.28 ng·h/mL, the Cmax was 43.50 ± 5.32 ng/mL and the Tmax was found to be 9.38 ± 1.40 min.
